# Experimental data: PMC4554797 (Bioorganic & medicinal chemistry, 2015)
# “Also recorded” adds a separate entry of the source.
# Tests used:
# MeWo = assay: Cell viability assay; type: cell-based, human; conditions: MeWo cells, 48 h, over the concentrations tested
# MeWo cells = assay: Animal model of melanoma; type: in vivo, athymic nude mice; conditions: for Tumor growth vs. DMF control: 30 mg/kg i.p. three times a week
# ATX [1] = assay: Serum analysis, mouse ENPP2 ELISA; type: in vivo; conditions: at necropsy
# ATX [2] = molecular target: T1, ATX (Homo sapiens, UniProt Q13822); assay: ATX Inhibitor Screening Kit, FS-3 hydrolysis; type: biochemical; conditions: for ATX inhibition (in words): dose-response mode, highest test concentration 10 μM
# ATX [3] = molecular target: T1, ATX; assay: Dilution/dialysis washout experiment, ATX activity by FS-3; type: biochemical; conditions: pre-incubated two minutes, over 1000-fold dilution over approximately one hour
# [4] = tested on: multiple cancer cell lines; assay: Cell viability assay; type: cell-based, human; conditions: 48 h; for Effect on cell viability (in words): HT-29, PC-3, MDA-MB-231, MeWo, SB-2, OVCAR-3, SKOV-3
# [5] = tested on: MDA-MB-231, OVCAR-3, SKOV-3 and MeWo cells; assay: Wound healing assay, all cell lines examined; type: cell-based, human
# OVCAR-3 = assay: Wound healing assay; type: cell-based, human; conditions: OVCAR-3, 5 μM
# MDA-MB-231 = assay: Wound healing assay; type: cell-based, human; conditions: MDA-MB-231, 5 μM
# Melanoma tumors = assay: Tumor specimen analysis; type: in vivo, athymic nude mice
# KC/CXCL1 = assay: Serum analysis, mouse Bio-Plex 23-Plex panel; type: in vivo; conditions: at necropsy; p<0.05 at 20 mg/kg, p<0.001 at 50-40 mg/kg vs. control
# VEGF = assay: Serum analysis, circulating VEGF; type: in vivo, mouse; conditions: data not shown
smiles,measurement,setting,value
CC[C@]1(O)C[C@H]2CN(CCc3c([nH]c4ccccc34)[C@@](C(=O)OC)(c3cc4c(cc3OC)N(C=O)[C@H]3[C@@](O)(C(=O)OC)[C@H](OC(C)=O)[C@]5(CC)C=CCN6CC[C@]43[C@@H]65)C2)C1 [vincristine],Cell viability reached,MeWo,≥ 50%
"O=C1S/C(=C\c2ccc(OCc3cccc(B(O)O)c3)cc2)C(=O)N1Cc1ccc(F)cc1 [HA-130, reference compound]",Tumor growth vs. DMF control,MeWo cells,neither of these ATX inhibitors reached statistical significance; also recorded: did not impact tumor progression
same,Circulating ATX in serum vs. control,ATX [1]; 30 mg/kg,no significant difference
CN(C)/N=N/c1[nH]cnc1C(N)=O [dacarbazine],Cell viability reached,MeWo,≥ 50%
"O=C(CCN1CCN(C(=O)OCc2cc(Cl)cc(Cl)c2)CC1)c1ccc2[nH]c(=O)oc2c1 [PF-8380, reference compound]",Tumor growth vs. DMF control,MeWo cells,neither of these ATX inhibitors reached statistical significance; also recorded: did not impact tumor progression
same,Circulating ATX in serum vs. control,ATX [1]; 30 mg/kg,no significant difference
CC(=O)O[C@H]1C(=O)[C@@]2(C)[C@H]([C@H](OC(=O)c3ccccc3)[C@]3(O)C[C@H](OC(=O)[C@H](O)[C@@H](NC(=O)c4ccccc4)c4ccccc4)C(C)=C1C3(C)C)[C@]1(OC(C)=O)CO[C@@H]1C[C@@H]2O [paclitaxel],Cell viability reached,MeWo,≥ 50%
C=C(CCCCCCCCCCCCCCCC)S(=O)(=O)c1ccccc1 [PVS-16],ATX inhibition (in words),ATX [2],did not inhibit ATX
same,ATX inhibition (in words),ATX [2]; listed as PVS-16 (21),no binding effect
same,ATX inhibition after washout,ATX [3],no evidence of inhibiting ATX activity
same,Effect on cell viability (in words),[4],little effect on cell viability
same,Effect on cell viability (in words),[4]; listed as PVS-16 (21),most cell types were unaffected
"C=C(CCCCCCCCCCCCCCCC)S(=O)(=O)CCC[N+](C)(C)C.[Cl-] [CVS-16, N,N,N-trimethyl-3-(octadec-1-en-2-ylsulfonyl)propan-1-aminium chloride]",ATX inhibition after short pre-incubation,ATX [2]; pre-incubating ATX with compound for 2 minutes,complete inhibition
same,ATX inhibition after washout,ATX [3],did not decrease the ATX inhibition
same,Concentration range of significant activity on cell viability,[4],0.5 to 5 µM
same,Effect on cell viability (in words),[4],reduced cell viability to some extent
same,Wound healing (in words),"[5]; 5 μM, 24 h, vs. untreated",inhibited wound healing
same,Wound closure in combination with LPA,"[5]; CVS-16 5 μM combined with LPA (18:1, 1 μM), in most cases",LPA was not able to overcome the inhibition
same,Reduction of wound healing,OVCAR-3,over 75%
same,Reduction of wound healing,MDA-MB-231,over 75%
same,Tumor volume vs. control,MeWo cells; 20 mg/kg i.p. three times a week,no significant difference
same,Time over which inhibition of tumor volume was sustained,"MeWo cells; 40-50 mg/kg, days after the injection of tumor cells",approximately 53 days
same,Tumor sizes vs. control,"MeWo cells; 50-40 mg/kg i.p. three times a week, day 57 (p<0.05) and day 65 (p<0.001)",achieved statistical significance
same,Melanoma progression in in vivo tumor model,MeWo cells; dose not given at this place,significantly inhibited melanoma progression
same,Specimens with mixed areas of viable and necrotic endothelial cells,Melanoma tumors; 20 mg/kg,50%
same,Specimens with only viable endothelial cells,Melanoma tumors; 20 mg/kg,50%
same,Percent of necrotic tissue within the tumor,"Melanoma tumors; 40-50 mg/kg, p<0.01 vs. control, p<0.05 vs. 20 mg/kg",significantly more necrosis than control
same,Ki-67 staining of tumor sections,Melanoma tumors; data not shown,no significant differences
same,Serum KC/CXCL-1,KC/CXCL1,significant reduction
same,Circulating ATX in serum vs. control,"ATX [1]; CVS-16 treated animals, p<0.05",significant reduction
same,Circulating VEGF vs. controls,VEGF,did not observe any change
same,Deaths,50 mg/kg group (n=5),one mouse
same,Clinical condition of mice,"50 mg/kg i.p., 46th day of the study",severely dehydrated
